Reference: publication PMC3882073 (European neuropsychopharmacology : the journal of the …, 2012)
Counter-ions that a name gives are not always drawn.

Columns and labels:
[1] = tested on: basal dopamine (DA) levels in prefrontal cortex (PFC); experiment: Basal dopamine levels in PFC, in vivo microdialysis; parameters: species or system rat
[2] = tested on: AMPH-induced DA release in striatum; experiment: Amphetamine; assay type: in vivo, rat
[3] = tested on: AMPH-induced DA release in prefrontal cortex (PFC); experiment: Amphetamine; assay type: in vivo, rat
[4] = tested on: psychotomimetic effects of ketamine; conditions: ref D’Souza et al., 2012, cited from earlier work
[5] = experiments involving Org25935 and DCS

Compound: N[C@@H]1CON=C1O [DCS, D-cycloserine]
- Effect on basal DA levels ([1]; DCS 30 mg/kg ip per day 2 weeks): no significant effect on basal DA levels
- Effect of drug treatment on AMPH-induced DA release in striatum [2, 5]: no significant effects
- Effect on AMPH-induced DA release in PFC ([3]; DCS 30 mg/kg ip per day 2 weeks, 60–210 min time period): significantly reduced AMPH-induced DA release
- Effect on AMPH-induced DA release in PFC ([3]; DCS 30 mg/kg ip per day 2 weeks, in the absence of PCP): no significant effect on AMPH-induced DA release
- Effect on PCP-induced enhancement of DA release in prefrontal cortex ([3]; summary statement (abstract)): significantly reduced PCP-induced enhancement of DA release in prefrontal cortex

Compound: c1ccc(C2(N3CCCCC3)CCCCC2)cc1 [PCP, Phencyclidine hydrochloride]
- Mean basal dopamine (DA) levels in PFC ([1]; Org25935 experiments, PCP 15 mg/kg/d minipump alone (vehicle), mean ± std dev): 1.03 ± .80 (16) pg/10 μl
- Effect on basal DA levels ([1]; PCP 15 mg/kg/d, experiments involving Org25935): no significant effect on basal DA levels
- Effect of treatment on basal DA levels ([1]; R231857/60 experiments, rmANOVA): Neither PCP (F1,49=.2, p=.6) nor R231857/R231860 (F3,49=.5, p=.7) treatment significantly altered basal DA levels
- Effect of PCP on AMPH-induced DA release in striatum [2, 5]: no significant effects
- Effect on striatal DA release ([2]; summary statement (abstract)): Neither PCP nor GTIs significantly affected striatal DA release
- Effect of PCP on AMPH-induced DA release in PFC ([3]; Org25935 experiments, PCP 15 mg/kg/d, 0–210 min after AMPH 1 mg/kg sc): significantly increased AMPH-induced DA release

Compound: COc1ccc2c(c1)CC[C@H](CN(C)CC(=O)O)[C@@H]2c1ccccc1 [Org25935]
- Effect on basal DA levels ([1]; Org25935 5 mg/kg, across control and PCP treatment conditions, post-hoc LSD): significant increase in basal DA levels
- Effect on basal DA levels ([1]; Org25935 10 mg/kg, across control and PCP treatment conditions, post-hoc LSD): non-significant decrease
- Effect of drug treatment on AMPH-induced DA release in striatum [2, 5]: no significant effects
- Effect on AMPH-induced DA release in PFC ([3]; Org25935 5 mg, in the absence of PCP): no significant effect on AMPH-induced DA release
- Effect on AMPH-induced DA release in PFC ([3]; Org25935 5 mg, in the presence of PCP vs PCP alone, 60–210 min): did not significantly reduced AMPH-induced DA release
- Effect on AMPH-induced DA release in PFC ([3]; Org25935 10 mg, in the absence of PCP): no significant effect on AMPH-induced DA release
- Effect on AMPH-induced DA release in PFC ([3]; Org25935 10 mg, in the presence of PCP vs PCP alone, 60–210 min): effective
- Effect on AMPH-induced DA release in PFC ([3]; Org25935, across doses, entire 0–210 min interval): significantly inhibited AMPH-induced DA release
- Total symptoms induced by ketamine ([4]; acute challenge study): reversed
- Acute psychotomimetic effects of ketamine ([4]; healthy volunteers): reverse acute psychotomimetic effects of ketamine
- Safety in human use ([4]; humans): safe in human use

Compound: NCC(=O)O [Glycine]
- Effect on AMPH-induced DA release in PFC ([3]; in the presence of PCP, glycine 16% by diet 2 weeks, positive control, 60–210 min): significantly reduced DA release
